Data taken from US20250361217A1, “FATTY ACID COMPOUNDS” (University of Pittsburgh - Of the Commonwealth System of …, priority 2022, published 2025).

How the values were obtained:
ACC = experiment: Thermal shift assay of liver proteins, ACC; type: binding, mice
Protocol: (§1) The liver samples (50 mg) were homogenized and vortexed in ice-cold RIPA buffer containing phosphatase (Fisher Scientific, #PIA32957) and protease (Fisher Scientific, #PIA32953) inhibitor cocktails. Protein concentration was determined using a […] (Pierce). Protein lysates were mixed with LDS Sample Buffer (1:4) and heated for 2 min at 95° C. The lysates were then loaded and electrophoresed on a 10% Tris-Glycine eXtended (BioRad, Criterion #5671034). The proteins were electrophoretically transferred to a PVDF membrane (BioRad, #1620177), and the transfer was confirmed by staining the membrane with 0.1% Ponceau S solution (Sigma-Aldrich, #6226-79-5). The membrane was then blocked for 90 min at RT with 5% nonfat dry milk (LabScientific) or 5% BSA (MilliporeSigma) in TBS-T (tris buffered saline+0.1% Tween 20 [Thermo Fisher Scientific]). […] Quantitative densitometric analysis was performed using Image Lab software (Bio-Rad).
(§2) Thermal Shift Assay Proteins were extracted from the liver powder (50 mg) with 1 mL of phosphate-buffered saline (PBS—Gibco, Paisley, UK) containing phosphatase (Fisher Scientific, #PIA32957) and protease (Fisher Scientific, #PIA32953) inhibitors. […] The Supernatants were transferred to new tubes and analyzed by western blot as described above.

ACLY = target: T1, ACLY (Mus musculus, UniProt Q91V92); experiment: Thermal shift assay of liver proteins, ACLY; type: binding, mice
T1 construct: Proteins were extracted from the liver powder (50 mg) with 1 mL of phosphate-buffered saline; from tissue; host or cells: liver of male C57BL/6J mice (HFD, treated in vivo with vehicle or 11U3-2M)
T1 sequence (Q91V92 1-1091): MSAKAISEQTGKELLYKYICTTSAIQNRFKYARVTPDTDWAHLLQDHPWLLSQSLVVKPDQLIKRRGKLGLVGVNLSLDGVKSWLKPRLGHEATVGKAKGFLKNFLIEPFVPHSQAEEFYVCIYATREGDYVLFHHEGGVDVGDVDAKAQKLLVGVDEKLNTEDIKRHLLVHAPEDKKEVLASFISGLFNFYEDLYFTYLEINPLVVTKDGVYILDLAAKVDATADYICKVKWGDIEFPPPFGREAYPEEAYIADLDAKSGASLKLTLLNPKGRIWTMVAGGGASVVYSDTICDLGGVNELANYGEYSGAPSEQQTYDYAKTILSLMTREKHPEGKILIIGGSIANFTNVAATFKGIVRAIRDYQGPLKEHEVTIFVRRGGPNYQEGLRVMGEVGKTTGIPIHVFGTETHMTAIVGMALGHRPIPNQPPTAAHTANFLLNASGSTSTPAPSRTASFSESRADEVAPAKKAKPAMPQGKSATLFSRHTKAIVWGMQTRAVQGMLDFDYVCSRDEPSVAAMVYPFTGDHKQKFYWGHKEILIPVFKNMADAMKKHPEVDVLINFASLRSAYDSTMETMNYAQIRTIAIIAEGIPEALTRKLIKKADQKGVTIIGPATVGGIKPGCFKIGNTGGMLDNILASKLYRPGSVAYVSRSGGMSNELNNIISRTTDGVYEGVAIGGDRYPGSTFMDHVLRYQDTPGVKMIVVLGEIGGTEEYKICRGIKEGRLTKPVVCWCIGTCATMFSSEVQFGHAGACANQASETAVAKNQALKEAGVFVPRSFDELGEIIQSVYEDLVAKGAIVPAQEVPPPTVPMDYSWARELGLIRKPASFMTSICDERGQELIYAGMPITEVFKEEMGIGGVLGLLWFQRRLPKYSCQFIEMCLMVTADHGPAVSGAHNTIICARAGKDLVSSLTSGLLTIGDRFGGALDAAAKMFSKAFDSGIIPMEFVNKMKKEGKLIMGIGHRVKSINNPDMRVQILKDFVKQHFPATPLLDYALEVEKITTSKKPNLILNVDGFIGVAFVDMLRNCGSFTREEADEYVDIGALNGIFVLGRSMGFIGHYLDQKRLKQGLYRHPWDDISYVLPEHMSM
Protocol: as §1, §2

[1] = FuFA-CoA detection in liver by mass spectrometry; type: in vivo; conditions: livers of FuFA-treated HFD mice
Protocol: Liver powder (50 mg) was used and dissolved in plastic Eppendorf with […] of milli-Q purified water and vortexed well. Then, 200 μl of ACN containing 400 nM n-Heptadecanoyl coenzyme A lithium salt as internal standard (C17-CoA standard, NuCheck) was added, vortexed thoroughly, and centrifuged for 4 min at 10000 g at 4° C. For protein precipitation, the supernatant was transferred to a new tube and 20 μl was diluted with 180 μl of ACN/water (4:1 ratio) in clean mass spectrometry vials for analysis of CoA's.
FuFA-CoA in liver and primary hepatocytes were detected with an API 5000™ mass spectrometer after chromatographic separation using a 150×2 mm Luna® 5 μm C8 100 C8 Å LC column (OOF-4040-BO) with 5% solvent B (ACN, 0.1% ammonium) at a flow rate of 0.35 ml/min using a system solvent started in 5% solvent B (ACN, 0.1% ammonium hydroxide) and 95% of solvent A(water+0.1% ammonium hydroxide) for 30 seconds, followed by an increase from 5-65% gradient of solvent B over 6 min, followed by re equilibrate condition. Quantitation of analyte and internal standard peak areas was determined using the Quantitation Wizard in Sciex's Analyst® Software.

[2] = full cohorts, HFD+11U3-2M, higher temperature (52, 53.5, 55° C.)
[3] = one mouse per group, 52, 53.5 and 55° C.

## CCCc1ccc(CCCCCCCCCC(C)(C)C(=O)O)o1 [11U3-2M, 2,2-Dimethyl-11-(5-propylfuran-2-yl)undecanoic acid]
ACC; [2]
  ACC thermal stability: greatly increased
ACC; [3]
  ACC thermal stability compared to veh: higher stability
ACLY; [2]
  ACLY thermal stability: greatly increased
ACLY; [3]
  ACLY thermal stability compared to veh: higher stability
[1]
  FuFA-CoA conjugate in liver (ratio to C17:0-CoA): significantly elevated
